From patent US12564634B2, “Highly dispersible zinc phthalocyanine-silica nanotubes and preparation method therefor” (priority 2019, dated 2026)

Assay: Dispersion stability analysis with LUMiSizer (transmittance profile under centrifugation)
Format: physicochemical
Settings: aqueous dispersion, 10 min ultrasonication, 5 s intervals, total 55 s, steeper slope = lower dispersion stability, Test Group I value matches the sample stored one day after dispersing
Procedure: In this experimental example, the dispersion stability of highly dispersible zinc phthalocyanine-silica nanotubes was tested. The dispersion stability analysis was performed with the use of LUMiSizer™.
In this regard, the dispersion stability refers to the stability of a dispersed material, and the longer the dispersion state is maintained after being dispersed, the higher the dispersion stability. As a measurement method, there is a method of directly observing the change in dispersion stability of the sample. In this regard, to shorten the observation time, there is a method of letting the sample to experience harsh conditions such as centrifugal force or heating so that the change in dispersion stability of the sample can be checked in a quick time (refer to “Procedures to accelerate the evaluation of long-term stability”, ISO/TR 13097). For example, the sample may undergo centrifugation so that relatively quick sedimentation of particles can occur compared to gravity sedimentation. In this case, layer separation occurs. […] A detector detects the IR rays having transmitted through the sample, and the detected rays are represented in real time as a transmittance profile. It is a method of performing comparative analysis of dispersion stability between samples by quantifying the generation rate, pattern, etc. of such a profile. […]

[Zn+2].c1ccc2c(c1)-c1nc-2nc2[n-]c(nc3nc([n-]c4nc(n1)-c1ccccc1-4)-c1ccccc1-3)c1ccccc21 [Control Group, zinc phthalocyanine]
increase slope of the average value of the transmittance profile (rate in %/s): 17.70 %/s
